Reference: PubChem BioAssay (NCI)
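In this assay, cells in 96-well plates receive the compound at five concentrations for 48 hours. Endpoints are linearly interpolated between the surrounding concentrations. Abbreviation: GI50, concentration required for 50% inhibition of growth. TGI: total growth inhibition.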

Assays:
Experiment in all cases: inhibition of tumour cell growth, NCI panel, 48 h
CCRF-CEM leukemia = test system: CCRF-CEM leukemia
HCT-116 colon = test system: HCT-116 colon
EKVX NSCLC = test system: EKVX NSCLC
MALME-3M melanoma = test system: MALME-3M melanoma
RXF 393 renal = test system: RXF 393 renal
SK-MEL-2 melanoma = test system: SK-MEL-2 melanoma
HOP-62 NSCLC = test system: HOP-62 NSCLC
LOX IMVI melanoma = test system: LOX IMVI melanoma
MCF7 breast = test system: MCF7 breast
SW-620 colon = test system: SW-620 colon
T-47D breast = test system: T-47D breast
SNB-19 CNS = test system: SNB-19 CNS
SF-295 CNS = test system: SF-295 CNS
CAKI-1 renal = test system: CAKI-1 renal
M14 melanoma = test system: M14 melanoma
UACC-62 melanoma = test system: UACC-62 melanoma
BT-549 breast = test system: BT-549 breast
A549 NSCLC = test system: A549 NSCLC
NCI-H460 lung = test system: NCI-H460 lung
HL-60(TB) leukemia = test system: HL-60(TB) leukemia
RPMI-8226 leukemia = test system: RPMI-8226 leukemia
SNB-75 CNS = test system: SNB-75 CNS
PC-3 prostate = test system: PC-3 prostate
SF-268 CNS = test system: SF-268 CNS
KM12 colon = test system: KM12 colon
NCI/ADR-RES ovarian = test system: NCI/ADR-RES ovarian
SK-MEL-5 melanoma = test system: SK-MEL-5 melanoma
A498 renal = test system: A498 renal
ACHN renal = test system: ACHN renal
HS 578T breast = test system: HS 578T breast
HCT-15 colon = test system: HCT-15 colon
NCI-H23 lung = test system: NCI-H23 lung
OVCAR-5 ovarian = test system: OVCAR-5 ovarian
IGROV1 ovarian = test system: IGROV1 ovarian
HT29 colon = test system: HT29 colon
TK-10 renal = test system: TK-10 renal
OVCAR-8 ovarian = test system: OVCAR-8 ovarian
MDA-MB-231 breast = test system: MDA-MB-231 breast
SN12C renal = test system: SN12C renal
NCI-H522 lung = test system: NCI-H522 lung
COLO 205 colon = test system: COLO 205 colon
K-562 leukemia = test system: K-562 leukemia
786-0 renal = test system: 786-0 renal
HCC-2998 colon = test system: HCC-2998 colon
SK-OV-3 ovarian = test system: SK-OV-3 ovarian
SR leukemia = test system: SR leukemia
MOLT-4 leukemia = test system: MOLT-4 leukemia
UACC-257 melanoma = test system: UACC-257 melanoma
MDA-MB-435 = test system: MDA-MB-435
NCI-H226 lung = test system: NCI-H226 lung
U251 CNS = test system: U251 CNS
OVCAR-4 ovarian = test system: OVCAR-4 ovarian
UO-31 renal = test system: UO-31 renal
SF-539 CNS = test system: SF-539 CNS
OVCAR-3 ovarian = test system: OVCAR-3 ovarian
HOP-92 NSCLC = test system: HOP-92 NSCLC
DU-145 prostate = test system: DU-145 prostate
SK-MEL-28 melanoma = test system: SK-MEL-28 melanoma

Compound `C#Cc1nc(C2=C(C)C(O)/C(=N/O)C2)cs1` (stereo unspecified) has a GI50 (CCRF-CEM leukemia) of 2.21 µM, a TGI (CCRF-CEM leukemia) of 5.3 µM and a GI50 (HCT-116 colon) of 42.2 µM. It also gave a TGI (HCT-116 colon) of over 100 µM, a GI50 (EKVX NSCLC) of over 100 µM and a TGI (EKVX NSCLC) of over 100 µM. It also gave a GI50 (MALME-3M melanoma) of 18.4 µM, a TGI (MALME-3M melanoma) of 49.6 µM and a GI50 (RXF 393 renal) of 19.4 µM. The TGI (RXF 393 renal) was 62.6 µM, the GI50 (SK-MEL-2 melanoma) was over 100 µM and the TGI (SK-MEL-2 melanoma) was over 100 µM. For the same compound, the GI50 (HOP-62 NSCLC) was 94.9 µM, the TGI (HOP-62 NSCLC) was over 100 µM and the GI50 (LOX IMVI melanoma) was 1.52 µM. It also gave a TGI (LOX IMVI melanoma) of 2.95 µM, a GI50 (MCF7 breast) of 39 µM and a TGI (MCF7 breast) of over 100 µM. For the same compound, the GI50 (SW-620 colon) was 79.3 µM, the TGI (SW-620 colon) was over 100 µM and the GI50 (T-47D breast) was 66.8 µM. The TGI (T-47D breast) was over 100 µM, the GI50 (SNB-19 CNS) was over 100 µM and the TGI (SNB-19 CNS) was over 100 µM. The GI50 (SF-295 CNS) was 12.5 µM, the TGI (SF-295 CNS) was 28.5 µM and the GI50 (CAKI-1 renal) was 48.3 µM. It also gave a TGI (CAKI-1 renal) of over 100 µM, a GI50 (M14 melanoma) of over 100 µM and a TGI (M14 melanoma) of over 100 µM. For the same compound, the GI50 (UACC-62 melanoma) was over 100 µM, the TGI (UACC-62 melanoma) was over 100 µM and the GI50 (BT-549 breast) was 19.8 µM. The TGI (BT-549 breast) was 75.5 µM, the GI50 (A549 NSCLC) was 35.3 µM and the TGI (A549 NSCLC) was over 100 µM. The GI50 (NCI-H460 lung) was over 100 µM, the TGI (NCI-H460 lung) was over 100 µM and the GI50 (HL-60(TB) leukemia) was 11.9 µM. For the same compound, the TGI (HL-60(TB) leukemia) was 29 µM, the GI50 (RPMI-8226 leukemia) was 5.19 µM and the TGI (RPMI-8226 leukemia) was 21.8 µM. It also gave a GI50 (SNB-75 CNS) of over 100 µM, a TGI (SNB-75 CNS) of over 100 µM and a GI50 (PC-3 prostate) of 39.1 µM. It also gave a TGI (PC-3 prostate) of over 100 µM, a GI50 (SF-268 CNS) of 40.7 µM and a TGI (SF-268 CNS) of over 100 µM. The GI50 (KM12 colon) was over 100 µM, the TGI (KM12 colon) was over 100 µM and the GI50 (NCI/ADR-RES ovarian) was 81.5 µM. The TGI (NCI/ADR-RES ovarian) was over 100 µM, the GI50 (SK-MEL-5 melanoma) was 54.6 µM and the TGI (SK-MEL-5 melanoma) was over 100 µM. For the same compound, the GI50 (A498 renal) was 24.1 µM, the TGI (A498 renal) was 50.3 µM and the GI50 (ACHN renal) was 3.61 µM. The TGI (ACHN renal) was over 100 µM, the GI50 (HS 578T breast) was over 100 µM and the TGI (HS 578T breast) was over 100 µM. It also gave a GI50 (HCT-15 colon) of 49 µM, a TGI (HCT-15 colon) of over 100 µM and a GI50 (NCI-H23 lung) of 7.4 µM. For the same compound, the TGI (NCI-H23 lung) was over 100 µM, the GI50 (OVCAR-5 ovarian) was 63.6 µM and the TGI (OVCAR-5 ovarian) was over 100 µM. For the same compound, the GI50 (IGROV1 ovarian) was 2.97 µM, the TGI (IGROV1 ovarian) was 12.1 µM and the GI50 (HT29 colon) was 25.7 µM. The TGI (HT29 colon) was 68.1 µM, the GI50 (TK-10 renal) was over 100 µM and the TGI (TK-10 renal) was over 100 µM. The GI50 (OVCAR-8 ovarian) was 55.5 µM, the TGI (OVCAR-8 ovarian) was over 100 µM and the GI50 (MDA-MB-231 breast) was 60.1 µM. For the same compound, the TGI (MDA-MB-231 breast) was over 100 µM, the GI50 (SN12C renal) was 35 µM and the TGI (SN12C renal) was over 100 µM. For the same compound, the GI50 (NCI-H522 lung) was 14.1 µM, the TGI (NCI-H522 lung) was 29.1 µM and the GI50 (COLO 205 colon) was over 100 µM. For the same compound, the TGI (COLO 205 colon) was over 100 µM, the GI50 (K-562 leukemia) was 36.7 µM and the TGI (K-562 leukemia) was over 100 µM. It also gave a GI50 (786-0 renal) of 3.84 µM, a TGI (786-0 renal) of 14 µM and a GI50 (HCC-2998 colon) of over 100 µM. For the same compound, the TGI (HCC-2998 colon) was over 100 µM, the GI50 (SK-OV-3 ovarian) was 18.8 µM and the TGI (SK-OV-3 ovarian) was 39.3 µM. For the same compound, the GI50 (SR leukemia) was 1.91 µM, the TGI (SR leukemia) was 5.31 µM and the GI50 (MOLT-4 leukemia) was 15.1 µM. It also gave a TGI (MOLT-4 leukemia) of 40.9 µM, a GI50 (UACC-257 melanoma) of 57.4 µM and a TGI (UACC-257 melanoma) of over 100 µM. The GI50 (MDA-MB-435) was over 100 µM, the TGI (MDA-MB-435) was over 100 µM and the GI50 (NCI-H226 lung) was over 100 µM. It also gave a TGI (NCI-H226 lung) of over 100 µM, a GI50 (U251 CNS) of 79.5 µM and a TGI (U251 CNS) of over 100 µM. It also gave a GI50 (OVCAR-4 ovarian) of 57.2 µM, a TGI (OVCAR-4 ovarian) of over 100 µM and a GI50 (UO-31 renal) of 1.61 µM. It also gave a TGI (UO-31 renal) of 2.98 µM, a GI50 (SF-539 CNS) of 11.5 µM and a TGI (SF-539 CNS) of 23.6 µM. The GI50 (OVCAR-3 ovarian) was over 100 µM, the TGI (OVCAR-3 ovarian) was over 100 µM and the GI50 (HOP-92 NSCLC) was 18.1 µM. The TGI (HOP-92 NSCLC) was 34.1 µM, the GI50 (DU-145 prostate) was 49.2 µM and the TGI (DU-145 prostate) was over 100 µM. The GI50 (SK-MEL-28 melanoma) was 87.8 µM and the TGI (SK-MEL-28 melanoma) was over 100 µM.
